Laboratory results reported in the NIST ThermoML archive (doi:10.1016/j.jct.2016.04.014).
± gives the expanded uncertainty stated by the source.

Test: xn = mol fraction of the nth substance listed
Settings: Liquid, Vibrating tube method

CCCCCCC [heptane] + CCO
mass density [kg/m3]
Settings | 100 kPa | 500 kPa | 5000 kPa | 10000 kPa | 15000 kPa | 20000 kPa | 25000 kPa | 30000 kPa | 35000 kPa | 40000 kPa
323.15 K, x1 = 0.2505 | – | – | – | – | 726.1 ± 1.7 | 730.6 ± 1.7 | 734.8 ± 1.7 | 738.9 ± 1.8 | 742.7 ± 1.8 | 746.4 ± 1.8
323.15 K, x1 = 0.5004 | – | – | – | – | 699.4 ± 1.7 | 704 ± 1.7 | 708.4 ± 1.8 | 712.4 ± 1.8 | 716.3 ± 1.8 | 720.1 ± 1.8
323.15 K, x1 = 0.7501 | – | – | – | – | 683 ± 1.7 | 687.7 ± 1.8 | 692 ± 1.8 | 696 ± 1.8 | 699.9 ± 1.8 | 703.6 ± 1.8
333.15 K, x1 = 0.2505 | 701.1 ± 1.7 | 701.6 ± 1.7 | 706.9 ± 1.7 | 712.5 ± 1.7 | 717.6 ± 1.7 | 722.4 ± 1.7 | 726.9 ± 1.7 | 731.2 ± 1.8 | 735.2 ± 1.8 | 739.1 ± 1.8
333.15 K, x1 = 0.5004 | 674 ± 1.8 | 674.5 ± 1.7 | 680 ± 1.7 | 685.7 ± 1.7 | 691 ± 1.7 | 695.9 ± 1.7 | 700.5 ± 1.8 | 704.8 ± 1.8 | 708.9 ± 1.8 | 712.8 ± 1.8
333.15 K, x1 = 0.7501 | 657.7 ± 1.7 | 658.2 ± 1.7 | 663.8 ± 1.7 | 669.6 ± 1.7 | 674.9 ± 1.7 | 679.8 ± 1.8 | 684.3 ± 1.8 | 688.6 ± 1.8 | 692.7 ± 1.8 | 696.6 ± 1.8
353.15 K, x1 = 0.2505 | – | 681.4 ± 1.7 | 687.7 ± 1.7 | 694.1 ± 1.7 | 700 ± 1.7 | 705.5 ± 1.7 | 710.5 ± 1.7 | 715.3 ± 1.8 | 719.7 ± 1.8 | 724 ± 1.8
353.15 K, x1 = 0.5004 | – | 654.2 ± 1.7 | 660.8 ± 1.7 | 667.5 ± 1.7 | 673.6 ± 1.7 | 679.1 ± 1.7 | 684.3 ± 1.8 | 689.1 ± 1.8 | 693.7 ± 1.8 | 698.1 ± 1.8
353.15 K, x1 = 0.7501 | – | 638.4 ± 1.7 | 645.1 ± 1.7 | 651.8 ± 1.7 | 657.9 ± 1.7 | 663.5 ± 1.8 | 668.6 ± 1.8 | 673.4 ± 1.8 | 678 ± 1.8 | 682.3 ± 1.8
373.15 K, x1 = 0.2505 | – | 659.3 ± 2.7 | 666.9 ± 2.7 | 674.5 ± 2.7 | 681.4 ± 2.7 | 687.6 ± 2.7 | 693.3 ± 2.7 | 698.6 ± 2.7 | 703.6 ± 2.7 | 708.4 ± 2.8
373.15 K, x1 = 0.5004 | – | 632.2 ± 2.7 | 640.2 ± 2.7 | 648.1 ± 2.7 | 655.3 ± 2.7 | 661.7 ± 2.7 | 667.5 ± 2.7 | 672.9 ± 2.8 | 678 ± 2.8 | 682.9 ± 2.8
373.15 K, x1 = 0.7501 | – | 617.2 ± 2.7 | 625.3 ± 2.7 | 633.3 ± 2.7 | 640.4 ± 2.7 | 646.8 ± 2.7 | 652.6 ± 2.7 | 658 ± 2.8 | 663 ± 2.8 | 667.9 ± 2.8
